Data as given in ChEMBL document CHEMBL1158627, “Non-basic ligands for aminergic GPCRs: the discovery and development diaryl sulfones as selective, orally bioavailable 5-HT2A receptor antagonists for the treatment of sleep disorders” (Bioorg Med Chem Lett, 2010).
Activity calls are given as the source filed them. No cut-off for these calls is given here.

Columns and labels:
[1] = Metabolic stability in human liver microsomes assessed as compound turnover after 0.25 hrs by LC/MS/MS analysis; design: dose or concentration left out as unconfirmed
Rattus norvegicus [2] = assay: Inhibition of ex vivo receptor occupancy of 5HT2A receptor in rat brain at 10 mg/kg, po after 0.5 hrs; type: functional
[3] = target: T1, 5-hydroxytryptamine receptor 2C (Homo sapiens, UniProt P28335); assay: biochemical
T1 sequence (P28335 whole entry): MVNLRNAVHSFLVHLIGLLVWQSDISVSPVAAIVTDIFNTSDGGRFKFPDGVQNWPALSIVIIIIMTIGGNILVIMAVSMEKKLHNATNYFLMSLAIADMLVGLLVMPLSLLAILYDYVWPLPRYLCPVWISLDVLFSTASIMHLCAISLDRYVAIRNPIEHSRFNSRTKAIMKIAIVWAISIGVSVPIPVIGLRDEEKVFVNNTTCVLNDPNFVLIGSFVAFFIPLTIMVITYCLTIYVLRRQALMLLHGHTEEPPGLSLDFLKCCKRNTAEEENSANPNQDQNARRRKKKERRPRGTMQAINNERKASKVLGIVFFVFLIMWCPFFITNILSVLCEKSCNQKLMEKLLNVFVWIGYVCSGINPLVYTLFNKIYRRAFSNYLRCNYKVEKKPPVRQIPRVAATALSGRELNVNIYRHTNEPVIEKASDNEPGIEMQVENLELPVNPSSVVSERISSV
Description: Displacement of [3H]mesulergine from human 5HT2C receptor expressed CHO cells

[4] = target: Voltage-gated inwardly rectifying potassium channel KCNH2 (Homo sapiens, UniProt Q12809); assay: Displacement of [3H]-dofetilide from human ERG receptor expressed HEK cells
[5] = Plasma concentration in rat at 10 mg/kg, po after 0.5 hrs; type: ADME, organism-based; design: dose 10 mg/kg, route oral
[6] = target: 5-hydroxytryptamine receptor 2A (Homo sapiens, UniProt P28223); assay: biochemical
Description: Displacement of [3H]- ketanserin from human 5HT2A receptor expressed CHO cells

Rattus norvegicus [7] = assay: Ex vivo receptor occupancy of 5HT2A receptor in rat brain at 10 mg/kg, po after 0.5 hrs; type: functional
[8] = Drug level in rat brain at 10 mg/kg, po after 0.5 hrs; type: ADME, organism-based; design: dose 10 mg/kg, route oral; conditions: read-out: Drug uptake
[9] = Inhibition of cytochrome P450 at > 30 uM; type: ADME
Mus musculus = assay: Phototoxicity in mouse assessed as formation of erythema at 10 to 2000 mg/kg, po; type: organism-based; design: dose 10-2000 mg/kg, route oral; conditions: in vivo
Canis familiaris [10] = assay: Cardiotoxicity in dog assessed as increase of heart rate up to 10 mg/kg, iv; type: toxicity, organism-based, Canis lupus familiaris; design: dose 10 mg/kg, route intravenous; conditions: in vivo
[11] = Metabolic stability in rhesus monkey liver microsomes assessed as compound remaining […] after 0.25 hrs by LC/MS/MS analysis; type: ADME, Macaca mulatta, Microsome; conditions: read-out: Stability
Rattus norvegicus [12] = assay: Decrease of number of awakenings in rat at 3 mg/kg, po after 15 hrs by EMG recordings; type: functional, organism-based; design: dose 3 mg/kg
[13] = target: Cytochrome P450 2C9 (Homo sapiens) (UniProt P11712); assay: Inhibition of CYP2C9 at 6 uM
[14] = Metabolic stability in dog liver microsomes assessed as compound remaining […] after 0.25 hrs by LC/MS/MS analysis; type: ADME, Canis lupus familiaris, Microsome; conditions: read-out: Stability
Rattus norvegicus [15] = assay: Ex vivo receptor occupancy of 5HT2A receptor in rat brain at <1 mg/kg, po after 2 hrs; type: functional
Canis familiaris [16] = assay: Cardiotoxicity in dog assessed as increase of QT interval up to 10 mg/kg, iv; type: toxicity, organism-based, Canis lupus familiaris; design: dose 10 mg/kg, route intravenous; conditions: in vivo
[17] = Half life in rhesus monkey at 0.1 mg/kg, iv and 1 mg/kg, po; type: ADME, organism-based, Macaca mulatta; conditions: in vivo
Rattus norvegicus [18] = assay: Ex vivo receptor occupancy of 5HT2A receptor in rat brain at 3 mg/kg, po after 2 hrs; type: functional, organism-based; design: dose 3 mg/kg
Rattus norvegicus [19] = assay: Increase of slow wave sleep in rat at 3 mg/kg, po after 15 hrs by EEG recordings; type: functional, organism-based; design: dose 3 mg/kg
[20] = Chemical stability in acetonitrile/water at pH 1 to 10 after 5 days; type: physicochemical; conditions: pH 1, 120 h
[21] = Bioavailability in rat; type: ADME, organism-based; conditions: in vivo
[22] = Induction of cytochrome P450 activity at 10 uM; type: ADME
Rhesus monkey = assay: Plasma concentration in rhesus monkey; type: ADME, organism-based, Macaca mulatta; conditions: in vivo
[23] = Metabolic stability in rat liver microsomes assessed as compound remaining […] after 0.25 hrs by LC/MS/MS analysis; type: ADME, Microsome; conditions: read-out: Stability
[24] = Inhibition of CYP1A at 4.8 uM; type: ADME
[25] = Plasma concentration in rat at <1 mg/kg, po after 2 hrs; type: ADME, organism-based
[26] = Stability after 5 days; type: physicochemical; conditions: 120 h
[27] = Bioavailability in dog; type: ADME, organism-based, Canis lupus familiaris; conditions: in vivo
Rattus norvegicus [28] = assay: Sedative activity in rat assessed effect on sleep onset at 3 mg/kg, po after 15 hrs; type: ADME, organism-based; design: dose 3 mg/kg, route oral; conditions: in vivo
[29] = Plasma clearance in Sprague-Dawley rat at 0.1 mg/kg, iv and 1 mg/kg, po; type: ADME, organism-based
[30] = Half life in Sprague-Dawley rat at 0.1 mg/kg, iv and 1 mg/kg, po; type: ADME, organism-based; conditions: in vivo
[31] = Plasma clearance in dog at 0.1 mg/kg, iv and 1 mg/kg, po; type: ADME, organism-based, Canis lupus familiaris
Rattus norvegicus [32] = assay: Sedative activity in rat assessed effect on time spent on rapid eye movement sleep at 3 mg/kg, po after 15 hrs; type: ADME, organism-based; design: dose 3 mg/kg, route oral; conditions: in vivo
Rattus norvegicus [33] = assay: Ex vivo receptor occupancy of 5HT2A receptor in rat brain at 1 mg/kg, po after 0.5 hrs; type: functional
[34] = Bioavailability in rhesus monkey; type: ADME, organism-based, Macaca mulatta; conditions: in vivo
[35] = Volume of distribution at steady state in Sprague-Dawley rat at 0.1 mg/kg, iv and 1 mg/kg, po; type: ADME, organism-based; conditions: in vivo, read-out: Vdss
[36] = Plasma clearance in rhesus monkey at 0.1 mg/kg, iv and 1 mg/kg, po; type: ADME, organism-based, Macaca mulatta
[37] = Half life in dog at 0.1 mg/kg, iv and 1 mg/kg, po; type: ADME, organism-based, Canis lupus familiaris; conditions: in vivo
Rattus norvegicus [38] = assay: Ex vivo receptor occupancy of 5HT2A receptor in rat brain at 5 mg/kg, po after 0.5 hrs; type: functional
[39] = Drug level in rat hepatic portal vein plasma at 5 mg/kg, po administered with methocel suspension by electrospray mass spectrometry; type: ADME, organism-based; design: dose 5 mg/kg, route oral
[40] = Drug level in rat cardiac plasma at 5 mg/kg, po administered with imwittor/tween by electrospray mass spectrometry; type: ADME, organism-based; design: dose 5 mg/kg, route oral
[41] = Drug level in rat hepatic portal vein plasma at 5 mg/kg, po administered with imwittor/tween by electrospray mass spectrometry; type: ADME, organism-based; design: dose 5 mg/kg, route oral
[42] = Drug level in rat cardiac plasma at 5 mg/kg, po administered with methocel suspension by electrospray mass spectrometry; type: ADME, organism-based; design: dose 5 mg/kg, route oral
[43] = Drug level in rat brain at 5 mg/kg, po administered with imwittor/tween by electrospray mass spectrometry; type: ADME, organism-based; design: dose 5 mg/kg, route oral
[44] = Drug level in rat brain at 5 mg/kg, po administered with methocel suspension by electrospray mass spectrometry; type: ADME, organism-based; design: dose 5 mg/kg, route oral
[45] = target: Cytochrome P450 2C9 (Homo sapiens) (UniProt P11712); assay: Inhibition of CYP2C9

Sequence of Voltage-gated inwardly rectifying potassium channel KCNH2 (Q12809 whole entry): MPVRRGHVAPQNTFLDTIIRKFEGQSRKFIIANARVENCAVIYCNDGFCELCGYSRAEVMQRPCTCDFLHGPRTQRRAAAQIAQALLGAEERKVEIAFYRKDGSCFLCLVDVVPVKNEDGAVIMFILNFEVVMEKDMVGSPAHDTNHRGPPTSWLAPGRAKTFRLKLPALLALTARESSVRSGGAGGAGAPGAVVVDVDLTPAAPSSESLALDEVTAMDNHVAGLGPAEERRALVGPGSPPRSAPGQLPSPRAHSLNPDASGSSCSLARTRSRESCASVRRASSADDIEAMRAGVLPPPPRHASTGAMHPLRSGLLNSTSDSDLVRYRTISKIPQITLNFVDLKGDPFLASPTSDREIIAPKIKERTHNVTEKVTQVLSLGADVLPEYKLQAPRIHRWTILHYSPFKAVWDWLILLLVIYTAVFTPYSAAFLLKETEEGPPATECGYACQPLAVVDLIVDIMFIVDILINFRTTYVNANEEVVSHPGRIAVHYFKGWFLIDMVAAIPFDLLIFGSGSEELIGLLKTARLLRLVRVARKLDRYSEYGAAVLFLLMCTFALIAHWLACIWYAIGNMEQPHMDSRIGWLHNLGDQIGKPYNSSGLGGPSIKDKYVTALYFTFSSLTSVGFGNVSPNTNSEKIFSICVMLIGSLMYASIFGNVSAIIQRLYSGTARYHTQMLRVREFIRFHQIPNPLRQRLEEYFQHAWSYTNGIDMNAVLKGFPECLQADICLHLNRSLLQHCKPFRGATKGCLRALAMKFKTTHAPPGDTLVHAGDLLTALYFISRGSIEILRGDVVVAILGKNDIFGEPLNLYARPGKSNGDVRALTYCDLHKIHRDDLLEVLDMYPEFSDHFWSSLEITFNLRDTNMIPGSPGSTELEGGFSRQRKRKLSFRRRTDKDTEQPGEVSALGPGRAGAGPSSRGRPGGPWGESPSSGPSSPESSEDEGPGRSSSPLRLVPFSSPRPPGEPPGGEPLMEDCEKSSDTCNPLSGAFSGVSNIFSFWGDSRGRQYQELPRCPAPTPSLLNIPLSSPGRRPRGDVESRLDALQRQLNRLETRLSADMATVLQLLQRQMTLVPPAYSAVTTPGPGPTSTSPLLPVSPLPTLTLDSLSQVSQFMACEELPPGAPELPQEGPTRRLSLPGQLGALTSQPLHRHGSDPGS
Sequence of 5-hydroxytryptamine receptor 2A (P28223 whole entry): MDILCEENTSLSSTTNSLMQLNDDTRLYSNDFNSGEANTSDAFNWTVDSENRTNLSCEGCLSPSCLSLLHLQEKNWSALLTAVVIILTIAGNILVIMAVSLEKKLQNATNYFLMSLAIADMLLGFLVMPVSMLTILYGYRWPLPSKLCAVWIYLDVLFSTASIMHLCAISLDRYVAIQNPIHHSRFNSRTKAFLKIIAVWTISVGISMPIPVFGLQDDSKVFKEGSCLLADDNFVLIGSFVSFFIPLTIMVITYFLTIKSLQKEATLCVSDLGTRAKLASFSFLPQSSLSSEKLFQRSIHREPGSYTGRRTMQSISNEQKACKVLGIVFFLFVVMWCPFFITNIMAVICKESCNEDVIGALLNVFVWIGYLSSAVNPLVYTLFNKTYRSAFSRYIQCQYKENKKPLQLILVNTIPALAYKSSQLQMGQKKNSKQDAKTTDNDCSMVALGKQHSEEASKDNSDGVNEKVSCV
Sequence of Cytochrome P450 2C9 (Homo sapiens) (P11712 whole entry, looked up): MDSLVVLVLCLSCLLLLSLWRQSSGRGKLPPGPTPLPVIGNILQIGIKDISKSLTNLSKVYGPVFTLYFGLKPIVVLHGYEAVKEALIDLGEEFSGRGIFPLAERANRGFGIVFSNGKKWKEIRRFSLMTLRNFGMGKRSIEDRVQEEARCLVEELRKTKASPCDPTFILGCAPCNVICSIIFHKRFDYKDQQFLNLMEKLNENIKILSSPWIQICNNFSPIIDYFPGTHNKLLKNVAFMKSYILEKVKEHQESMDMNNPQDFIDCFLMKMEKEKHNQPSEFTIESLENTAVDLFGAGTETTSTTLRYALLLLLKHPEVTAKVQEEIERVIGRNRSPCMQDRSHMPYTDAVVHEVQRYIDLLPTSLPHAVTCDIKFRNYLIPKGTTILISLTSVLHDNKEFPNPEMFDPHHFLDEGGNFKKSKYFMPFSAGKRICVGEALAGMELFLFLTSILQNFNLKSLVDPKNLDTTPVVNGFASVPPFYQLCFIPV

In the case of `NC(=O)c1cccc(S(=O)(=O)c2ccc(/C=C/c3ccc(F)cc3F)cc2)c1`, the turnover at 0.25 h [1] is reported as 3%, the inhibition in vivo at 10 mg/kg (Rattus norvegicus [2]) is reported as 50% and the Ki [3] is reported as 21 nM. The Ki [4] was over 9000 nM, the concentration at 0.5 h [5] was 40 nM and the Ki [6] was 0.2 nM. For the same molecule, the Activity (Rattus norvegicus [7]) was 50% and the concentration at 0.5 h [8] was 40 nM.
In the case of `C[C@H](O)c1ccccc1S(=O)(=O)c1ccc(/C=C/c2ccc(F)cc2)cc1`, the IC50 [9] is reported as over 30000 nM, the Activity (Mus musculus) is reported as “Toxic” and the Activity (Canis familiaris [10]) is reported as “Non-toxic”. For the same molecule, the remaining at 0.25 h [11] was 44%, the turnover at 0.25 h [1] was 45% and the Activity (Rattus norvegicus [12]) was “Active”. The INH [13] was 6 µM, the remaining at 0.25 h [14] was 34% and the Activity (Rattus norvegicus [15]) was 80%. The Ki [3] was 47 nM, the Activity (Canis familiaris [16]) was “Non-toxic” and the half-life [17] was 2.13 h. For the same molecule, the Activity (Rattus norvegicus [18]) was “Active”, the Activity (Rattus norvegicus [19]) was “Active” and the Ki [4] was 8250 nM. For the same molecule, the Stability [20] was “Stable”, the bioavailability [21] was 44% and the Activity [22] was 8%. The concentration (Rhesus monkey) was 170 nM, the remaining at 0.25 h [23] was 50% and the IC50 [24] was 4800 nM. The concentration at 2 h [25] was 60 nM, the Stability [26] was “Stable” and the bioavailability [27] was 45%. The Activity (Rattus norvegicus [28]) was “Non-toxic”, the clearance [29] was 95 mL/min/kg and the half-life [30] was 3.8 h. For the same molecule, the clearance [31] was 8 mL/min/kg, the Activity (Rattus norvegicus [32]) was “Non-toxic” and the Activity (Rattus norvegicus [33]) was 83%. The bioavailability [34] was 10%, the Vd [35] was 19 L/kg and the clearance [36] was 32 mL/min/kg. It also gave a Ki [6] of 0.22 nM and a half-life [37] of 3.15 h.
With `CC(O)c1ccccc1S(=O)(=O)c1ccc(/C=C/c2ccc(F)cc2)cc1` (racemic) the turnover at 0.25 h [1] was under 10%, the Ki [3] was 7 nM and the Ki [4] was 4000 nM. The Activity (Rattus norvegicus [38]) was 99%, the Ki [6] was 0.07 nM and the Activity (Rattus norvegicus [7]) was 85%.
`NC(=O)c1ccccc1S(=O)(=O)c1ccc(/C=C/c2ccc(F)cc2F)cc1` gave a remaining at 0.25 h [11] of 23%, a turnover at 0.25 h [1] of 15.8% and an inhibition in vivo at 10 mg/kg (Rattus norvegicus [2]) of 100%. For the same molecule, the remaining at 0.25 h [14] was under 10%, the Ki [3] was 127 nM and the half-life [17] was 85 h. For the same molecule, the Ki [4] was over 9000 nM, the remaining at 0.25 h [23] was 0% and the clearance [29] was 3 mL/min/kg. The half-life [30] was 28 h, the clearance [31] was 0.3 mL/min/kg and the concentration at 0.5 h [5] was 2730 nM. It also gave a clearance [36] of 0.13 mL/min/kg, a Ki [6] of 0.65 nM and an Activity (Rattus norvegicus [7]) of over 100%. For the same molecule, the concentration at 0.5 h [8] was 5770 nM and the half-life [37] was 134 h.
For `O=C(c1ccccc1F)N1CCC(CCc2ccc(F)cc2F)CC1`, the turnover at 0.25 h [1] was 99%, the Ki [3] was 100 nM and the Ki [4] was over 9000 nM. The Activity (Rattus norvegicus [7]) was 40%.
With `NC(=O)c1ccc(S(=O)(=O)c2ccc(/C=C/c3ccc(F)cc3F)cc2)cc1` the turnover at 0.25 h [1] was 0%, the inhibition in vivo at 10 mg/kg (Rattus norvegicus [2]) was 53% and the Ki [3] was 41 nM. It also gave a Ki [4] of 7920 nM, a concentration at 0.5 h [5] of 300 nM and a Ki [6] of 0.65 nM. The concentration at 0.5 h [8] was 620 nM.
`O=S(=O)(c1ccccc1)c1ccc(/C=C/c2ccc(F)cc2F)cc1` showed an AUC [39] of 0.46 µM·h, an AUC [40] of 0.79 µM·h and a turnover at 0.25 h [1] of 33%. For the same molecule, the AUC [41] was 6.39 µM·h, the Ki [3] was 65 nM and the AUC [42] was 0.09 µM·h. The Ki [4] was 4340 nM, the AUC [43] was 1.96 µM·h and the AUC [44] was 0.38 µM·h. The Ki [6] was 1.32 nM and the Activity (Rattus norvegicus [7]) was 40%.
`O=S(=O)(c1ccc(/C=C/c2ccc(F)cc2)cc1)c1ccccc1CO` gave an IC50 [45] of 100 nM.
Work on `O=S(=O)(c1ccc(F)cc1)C1(F)CCN(CCc2ccc(F)cc2F)CC1` yielded a Ki [3] of 69 nM and an Activity (Rattus norvegicus [7]) of 98%.
In the case of `O=S(=O)(c1ccccc1)c1ccc(CCc2ccc(F)cc2F)cc1`, the turnover at 0.25 h [1] is reported as 84%, the Ki [3] is reported as 526 nM and the Ki [4] is reported as over 9000 nM. The Ki [6] was 1.43 nM.
In the case of `O=S(=O)(c1cccc2cccnc12)N1CCC(CCc2ccc(F)cc2F)CC1`, the Ki [3] is reported as 184 nM, the Ki [4] is reported as over 9000 nM and the Ki [6] is reported as 2.1 nM.
